Data published in publication PMC7114351 (Antiviral Research, 2008).
Values joined by “and” are separate entries in the source; they are usually repeats but may differ in a detail not shown here. Identical values can stand only once. “Also recorded” adds a separate entry of the source. Like-named read-outs stand apart in the source and are kept apart here.

Legend:
[1] = test system: recombinant VACV expressing luciferase; test: microbe, parasite or virus in culture; assay type: cell-based, vaccinia virus; details: for IC50: Orthopoxvirus vaccinia, read-out: Luc IC50 ± SD
[2] = test system: VACV late promoter p4b (Luc L); assay type: cell-based, vaccinia virus
VACV (strain WR) = details: HFF cells, ref Quenelle et al., 2007; cited from earlier work
WT VACV = assay type: cell-based, vaccinia virus
VACV proteins = assay type: cell-based, vaccinia virus
recombinant VACV = test: microbe, parasite or virus in culture; assay type: cell-based, vaccinia virus; details: for IC50 / IC90: Orthopoxvirus vaccinia; for IC50: read-out: Titer IC50 ± SD; for IC90: read-out: Titer IC90 ± SD
WT VACV (WR) = test: microbe, parasite or virus in culture; assay type: cell-based; details: Orthopoxvirus vaccinia; for IC50: read-out: Titer IC50 ± SD; for IC90: read-out: Titer IC90 ± SD
Cytotoxicity, MTT assay [3] = assay type: cell-based; details: human, Jurkat cells
Cytotoxicity, MTT assay [4] = assay type: cell-based, human; details: human, HeLa G cells
Cytotoxicity, MTT assay [5] = assay type: cell-based, mouse; details: mouse, L929 cells
VACV genomic DNA = assay type: cell-based, vaccinia virus
Cytotoxicity, MTT assay [6] = assay type: cell-based, African green monkey; details: African green monkey, BSC-40 cells
[7] = test system: cell lines of the antiviral assays; test: Cytotoxicity in conditions of the antiviral assays; details: up to 1 mM; higher cell density, 2% serum, 24 h incubation
HeLa G cells = test: Cytotoxicity, MTT assay; assay type: cell-based, human
L929 cells = test: Cytotoxicity, MTT assay; assay type: cell-based, mouse
[8] = test system: VACV early/late promoter p7.5 (Luc E/L); assay type: cell-based, vaccinia virus
VACV = assay type: cell-based, vaccinia virus
[9] = test system: luciferase expressed by Luc E/L or Luc L; assay type: cell-based, vaccinia virus
BSC-40 cells = test: Cytotoxicity, MTT assay; assay type: cell-based, African green monkey
VACVs (strain WR) = details: two different VACVs (strain WR), ref Becker et al., 2008, cited from earlier work

In the case of `O[C@@H](CS)[C@@H](O)CS` (racemic) [dithiothreitol], the “luciferase activity, % of the mock-treated controls” value (“luciferase activity, %” below) [1] is reported as 140%.
With `Nc1ccn([C@@H]2O[C@H](CO)[C@@H](O)[C@@H]2O)c(=O)n1` [AraC, cytosine arabinoside] the “activity of luciferase expressed by Luc L, % of the mock-treated controls grown in the absence of AraC” value [2] was ≤ 0.05%.
In the case of `CCCCCCCCCCCCCCCCOCCCOP(=O)(O)CO[C@H](CO)Cn1ccc(N)nc1=O` [CMX001], the IC50 (VACV (strain WR)) is given as 0.13 µM.
In the case of `C=C(CC)C(=O)c1ccc(OCC(=O)O)c(Cl)c1Cl` [Ethacrynic acid, ethacrynic acid], the number of plaques (WT VACV) is reported as “reduced the number of plaques”, the IC50 ([1]; 24 h) is reported as 18.3 ± 3.7 µM and the IC50 ([1]; BSC-40, 24 h) is reported as 35.3 ± 7 µM. The IC50 ([1]; HeLa, 24 h) was 2.6 ± 0.6 µM, the IC50 ([1]; L929, 24 h) was 26.5 ± 1.9 µM and the “VACV protein levels, western blot” value (VACV proteins) was “did not seem to decrease protein levels”. The “inhibition of VACV growth” value (recombinant VACV) was 1 logs and 2 logs, the IC50 (recombinant VACV; 24 h) was 12.2 ± 0.3 µM and the IC90 (recombinant VACV; 24 h) was 40.9 ± 1.4 µM. For the same molecule, the IC50 (recombinant VACV; BSC-40, 24 h) was 11.9 ± 0.5 µM, the IC90 (recombinant VACV; BSC-40, 24 h) was 30.9 ± 0.8 µM and the IC50 (recombinant VACV; HeLa, 24 h) was 1.6 ± 0.1 µM. For the same molecule, the IC90 (recombinant VACV; HeLa, 24 h) was 5.4 ± 0.3 µM, the IC50 (recombinant VACV; Jurkat, 24 h) was 9.5 ± 2.4 µM and the IC90 (recombinant VACV; Jurkat, 24 h) was 30.9 ± 10 µM. For the same molecule, the IC50 (recombinant VACV; L929, 24 h) was 19.8 ± 2.4 µM, the IC90 (recombinant VACV; L929, 24 h) was 80.2 ± 30.9 µM and the IC50 (WT VACV (WR); 24 h) was 9.5 ± 2.6 µM. For the same molecule, the IC90 (WT VACV (WR); 24 h) was 47.8 ± 7.9 µM, the IC50 (WT VACV (WR); BSC-40, 24 h) was 9.2 ± 1 µM and the IC90 (WT VACV (WR); BSC-40, 24 h) was 29.4 ± 1 µM. It also gave an IC90 (WT VACV (WR); HeLa, 24 h) of 18.8 ± 0.6 µM, an IC50 (WT VACV (WR); Jurkat, 24 h) of 13.8 ± 4.7 µM and an IC90 (WT VACV (WR); Jurkat, 24 h) of 42.9 ± 13.4 µM. For the same molecule, the IC50 (WT VACV (WR); L929, 24 h) was 19.3 ± 3.9 µM, the IC90 (WT VACV (WR); L929, 24 h) was 61.3 ± 16.3 µM and the CC50 at 2 days (Cytotoxicity, MTT assay [3]) was 35 µM. The CC50 at 2 days (Cytotoxicity, MTT assay [4]) was 128 µM, the CC50 at 2 days (Cytotoxicity, MTT assay [5]) was 224 µM and the “levels of VACV genomic DNA” value (VACV genomic DNA) was “not changed”. For the same molecule, the CC50 at 2 days (Cytotoxicity, MTT assay [6]) was 292 µM.
For `O=C1O[C@H]([C@@H](O)CO)C(O)=C1O` [L-ascorbic acid, L-Ascorbic acid], the “luciferase activity, %” value [1] was 120%.
With `O=C(O)CCCCC1CCSS1` (stereo not drawn) [Lipoic acid, α-lipoic acid] the “effect on activity of Luc L” value [2] was “dose-dependent inhibitory effect”, the “effect on activity of luciferase expressed by Luc L” value [2] was “neither EA nor LA affected this result” and the size of plaques (WT VACV) was “reduced the size of plaques”. The IC50 ([1]; 24 h) was 305 ± 12 µM, the IC50 ([1]; BSC-40, 24 h) was 642 ± 4 µM and the IC50 ([1]; HeLa, 24 h) was 838 ± 159 µM. For the same molecule, the IC50 ([1]; L929, 24 h) was 747 ± 199 µM, the “VACV protein levels, western blot” value (VACV proteins) was “did not induce any major changes; also recorded: decreased the protein expression slightly” and the IC50 (recombinant VACV; BSC-40, 24 h) was 409 ± 8 µM. For the same molecule, the IC50 (recombinant VACV; HeLa, 24 h) was 220 ± 14 µM, the IC50 (recombinant VACV; Jurkat, 24 h) was 354 ± 52 µM and the IC50 (recombinant VACV; L929, 24 h) was 245 ± 18 µM. It also gave an IC50 (WT VACV (WR); 24 h) of 587 ± 296 µM, an IC50 (WT VACV (WR); BSC-40, 24 h) of 712 ± 444 µM and an IC50 (WT VACV (WR); HeLa, 24 h) of 803 ± 273 µM. For the same molecule, the IC50 (WT VACV (WR); Jurkat, 24 h) was 492 ± 92 µM, the IC50 (WT VACV (WR); L929, 24 h) was 702 ± 16 µM and the CC50 at 2 days (Cytotoxicity, MTT assay [3]) was > 2000 µM. The “cytotoxicity in conditions of the antiviral assays” value [7] was “neither EA nor LA induced any obvious cytotoxicity”, the CC50 (HeLa G cells; MTT, 2 days of incubation) was “Growth promotion” and the “inhibition of cell growth, MTT” value (HeLa G cells; up to 2 mM) was “not found to inhibit growth”. For the same molecule, the CC50 (L929 cells; MTT, 2 days of incubation) was “Growth promotion”, the “inhibition of cell growth, MTT” value (L929 cells; up to 2 mM) was “not found to inhibit growth” and the “effect on activity of Luc E/L” value [8] was “dose-dependent inhibitory effect”. The “effect on activity of luciferase expressed by Luc E/L (early gene expression)” value [8] was “neither EA nor LA further decreased this measurable activity of luciferase”, the “effect of pre-treatment on luciferase activity and virus titers (VACV entry)” value (VACV) was “not found to cause any differences” and the “protein levels of luciferase, western blot” value [9] was “gradual decrease”. For the same molecule, the “levels of VACV genomic DNA” value (VACV genomic DNA) was “not changed”, the CC50 (BSC-40 cells; MTT, 2 days of incubation) was “Growth promotion” and the “inhibition of cell growth, MTT” value (BSC-40 cells; up to 2 mM) was “not found to inhibit growth”.
For `O=C(NN1C(=O)[C@@H]2[C@@H]3C=C[C@@H]([C@H]4C[C@@H]34)[C@@H]2C1=O)c1ccc(C(F)(F)F)cc1` [ST-246], the IC50 (VACV (strain WR)) is listed as 0.1 µM.
In the case of `Nc1ccn(C[C@@H](CO)OCP(=O)(O)O)c(=O)n1` [cidofovir], the IC50 (VACVs (strain WR); BSC-40 cells) is listed as < 50 µM, the IC50 (VACVs (strain WR); Vero cells) is listed as 54 µM and 62 µM and the IC50 (VACV (strain WR)) is listed as 33 µM.
For `OCCS` [β-mercapthoethanol, β-mercaptoethanol], the “luciferase activity, %” value [1] was 150%.
